The target of one assay is T1, rabbit 5-LOX (Oryctolagus cuniculus, UniProt G1SNX0).
T1 construct: purchased Cayman Chemical 560131
T1 sequence (G1SNX0 1-674): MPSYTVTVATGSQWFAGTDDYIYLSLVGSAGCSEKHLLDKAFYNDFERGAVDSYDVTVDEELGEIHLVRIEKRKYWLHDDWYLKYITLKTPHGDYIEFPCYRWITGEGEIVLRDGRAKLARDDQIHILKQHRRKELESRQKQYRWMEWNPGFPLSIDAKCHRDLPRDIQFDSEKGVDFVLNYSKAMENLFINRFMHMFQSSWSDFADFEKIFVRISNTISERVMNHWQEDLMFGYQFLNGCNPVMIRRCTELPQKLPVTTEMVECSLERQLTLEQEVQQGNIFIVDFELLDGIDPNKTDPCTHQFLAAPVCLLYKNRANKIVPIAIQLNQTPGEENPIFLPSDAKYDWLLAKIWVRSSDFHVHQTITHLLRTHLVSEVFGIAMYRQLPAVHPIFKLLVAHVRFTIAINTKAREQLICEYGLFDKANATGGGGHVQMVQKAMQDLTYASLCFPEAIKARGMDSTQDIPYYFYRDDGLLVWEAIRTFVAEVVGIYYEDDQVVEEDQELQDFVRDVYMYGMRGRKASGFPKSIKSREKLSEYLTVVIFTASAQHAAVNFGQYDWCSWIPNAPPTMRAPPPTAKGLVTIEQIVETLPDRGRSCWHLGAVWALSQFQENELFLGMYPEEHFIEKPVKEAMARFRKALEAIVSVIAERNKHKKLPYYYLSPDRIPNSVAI
Description: In vitro 5-LOX inhibition assay (enzyme kit). The following applies: mean of three values. The format is biochemical.

The subject of assay [1] is THLE2 (healthy human liver) cells. Description: Cell viability, MTT assay, THLE2. The format is cell-based. The protocol: (§1) HepG2, MCF7, and THLE2 cells were initially seeded at a density of 1 × 10^4 cells per well (100 μL per well) in DMEM medium. These cultures were then incubated at 37 °C in a 5% CO2 environment for 24 h to attain confluency levels ranging from 70% to 80%. […] The cells were allowed to culture for an additional 24 h.
(§2) After the incubation period, 10 μL of a 12 mM MTT stock solution (5 mg/mL MTT in sterile PBS) was introduced into each well. The plate was incubated for 4 h at 37 °C. Following this, the MTT solution was removed, and the purple formazan crystals that had developed at the well bottoms were dissolved by adding 100 μL of DMSO, allowing for a 20 min incubation. A negative control was included, which involved adding 10 μL of the MTT stock solution to 100 μL of medium alone.
(§3) The absorbance at 570 nm was subsequently measured using an ELISA reader (StatFax-2100, Awareness Technology, Inc., Palm City, FL, USA). […] Sigmoidal and dose-dependent curves were created to visualize the experimental results. These assays were conducted in triplicate and were repeated in three independent experiments.

For assay [2], the system named is MCF7 (human breast cancer) cells. Description: Cell viability, MTT assay, MCF7. The format is cell-based. The following applies: 24 h. The protocol: as §1, §2, §3
Assay [3] relates to HepG2 (human liver cancer) cells. Kind of assay: Cell viability, MTT assay, HepG2. It is filed as cell-based. The protocol:
as §1, §2, §3

Assay [4] has as its system LPS-inflamed THLE2 cells. Particulars: 1/10 of IC50, LPS 1 μg/mL, 24 h, G3 vs G2. The protocol: (§4) HepG2, MCF7, and THLE2 cells were initially seeded in a culture medium comprising DMEM supplemented with 10% FCS and 1% penicillin/streptomycin solution. These cultures were maintained at 37 °C in a 5% CO2 environment. The culture medium was refreshed twice a week, and when the cell cultures reached approximately 80% confluence, they were subcultured after trypsinization (0.05%, w/v). To mitigate mitogenic effects, the cells were pre-cultured in serum-free DMEM for a minimum of 4 h.
(§5) To induce inflammation, 1 μg/mL of LPS was added to the cultures, as previously described. Subsequently, the cells were allowed to incubate for a duration of 24 h.
(§6) Inflammatory marker levels, including TNFα, IL1b, COX-1, COX-2, and 5-LOX, were quantified following established procedures. In short, the cells were seeded at a density of 5 × 10^4 cells per well in flat-bottomed 96-well plates. […] The cells were then incubated at 37 °C for a period of 24 h.
(§7) After incubation, the culture medium was carefully collected into micro-centrifuge tubes and subjected to centrifugation at 1500 rpm for 10 min. The resulting supernatant was transferred to new micro-centrifuge tubes, and the levels of TNFα, IL1b, COX-1, COX-2, and 5-LOX were determined using an ELISA kit (TNFα, IL1b, COX-1, COX-2, and 5-LOX were determined using enzyme-linked immunoassay (ELISA) kits from Sigma Aldrich (Saint Louis, MO, USA), Abcam (Cambridge, UK), and Aviva Systems Biology (San Diego, CA, USA).

The subject of assay [5] is LPS-inflamed HepG2 cells. Particulars: 1/10 of IC50, LPS 1 μg/mL, 24 h. The protocol: as §4, §5, §6, §7
In assay [6] the test system is LPS-inflamed MCF7 cells. The following applies: 1/10 of IC50, LPS 1 μg/mL, 24 h, G3 vs G2. The protocol:
as §4, §5, §6, §7

The test system of assay [7] is LPS-inflamed THLE2 cells. Particulars: 1/10 of LC50, LPS 1 µg/mL, 24 h, G3 compared to G2. The protocol:
(§8) The levels of malondialdehyde (MDA), superoxide dismutase (SOD), catalase (CAT), and glutathione peroxidase (GPX) were quantified using commercial kits, following established protocols. […] Subsequently, the cells were exposed to 1 µg/mL of LPS for 24 h.
(§9) After this incubation period, the cells were rinsed with PBS, harvested from the plates, and suspended in 1 mL of ice-cold PBS (0.1 M, containing 0.05 mM EDTA). The cell suspension was homogenized, and the resulting homogenate was then subjected to centrifugation at 4000× g for 10 min at 4 °C. The obtained supernatants were preserved at −80 °C until they were ready for analysis. The protein concentration in each of the supernatant samples was determined using the Bradford assay.

Assay [8] concerns LPS-inflamed HepG2 cells. Particulars: 1/10 of LC50, LPS 1 µg/mL, 24 h, G3 relative to G2. On the procedure: as §8, §9
In assay [9] the test system is LPS-inflamed MCF7 cells. The following applies: 1/10 of LC50, LPS 1 µg/mL, 24 h, G3 relative to G2. The protocol: as §8, §9
Another assay concerns the target human recombinant COX-2 (Homo sapiens, UniProt P35354). Description: biochemical.
Assay [10] concerns LPS-inflamed THLE2 cells. Particulars: qPCR, β-actin reference, G3 vs G2. On the procedure: as §4, §5
(§10) To isolate total RNA from HepG2, MCF7, and THLE2 cells, the RNeasy Mini kit was employed in accordance with the manufacturer’s instructions and established methods. Subsequently, cDNA was synthesized from […] of the total RNA using Quantiscript reverse transcriptase. The resulting cDNA served as a template for evaluating the relative expression of target gene mRNAs, with β-actin serving as an internal reference. To amplify the isolated cDNA, 2X Maxima SYBR Green/ROX qPCR Master Mix was used, following the manufacturer’s protocol, and specific gene primers designed for the purpose.
(§11) The reaction volume and qPCR thermal conditions were consistent with those previously described. Upon completion of the final cycle, the temperature was increased from 60 to 95 °C to generate a melt curve. The relative change in gene expression was presented as a fold change, determined using quantities at the critical threshold (Ct) and the 2^−∆∆Ct method (Table 5).

Assay [11] has as its system LPS-inflamed HepG2 cells. The following applies: qPCR, β-actin reference, G3 vs G2. The protocol:
as §4, §5, §10, §11

Assay [12] has as its system LPS-inflamed MCF7 cells. Particulars: qPCR, β-actin reference, G3 vs G2. On the procedure:
as §4, §5, §10, §11

Another assay addresses ovine COX-1 (Ovis aries, UniProt P05979). Kind of assay: biochemical.
For the next assay, the system named is COX-1/COX-2/5-LOX. The following applies: from experimental IC50.

Here are results for three molecules from paper PMC10891904 (Pharmaceuticals, 2024).

Sequence of human recombinant COX-2 (P35354 18-604): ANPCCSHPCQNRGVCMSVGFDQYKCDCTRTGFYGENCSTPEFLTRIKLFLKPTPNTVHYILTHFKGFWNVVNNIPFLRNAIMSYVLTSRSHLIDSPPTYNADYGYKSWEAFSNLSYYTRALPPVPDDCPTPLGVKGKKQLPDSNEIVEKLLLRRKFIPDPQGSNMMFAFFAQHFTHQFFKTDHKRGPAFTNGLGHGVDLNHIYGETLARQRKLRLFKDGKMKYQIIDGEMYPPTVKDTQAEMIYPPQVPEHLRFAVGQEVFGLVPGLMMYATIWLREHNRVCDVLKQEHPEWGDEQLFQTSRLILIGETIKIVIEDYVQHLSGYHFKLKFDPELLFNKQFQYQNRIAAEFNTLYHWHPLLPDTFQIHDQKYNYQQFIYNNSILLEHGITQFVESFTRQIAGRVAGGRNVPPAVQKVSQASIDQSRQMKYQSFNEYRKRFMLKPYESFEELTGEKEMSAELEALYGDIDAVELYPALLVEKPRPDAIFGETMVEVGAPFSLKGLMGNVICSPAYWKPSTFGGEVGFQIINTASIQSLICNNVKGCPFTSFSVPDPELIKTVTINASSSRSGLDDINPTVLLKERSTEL
Sequence of ovine COX-1 (P05979 25-600): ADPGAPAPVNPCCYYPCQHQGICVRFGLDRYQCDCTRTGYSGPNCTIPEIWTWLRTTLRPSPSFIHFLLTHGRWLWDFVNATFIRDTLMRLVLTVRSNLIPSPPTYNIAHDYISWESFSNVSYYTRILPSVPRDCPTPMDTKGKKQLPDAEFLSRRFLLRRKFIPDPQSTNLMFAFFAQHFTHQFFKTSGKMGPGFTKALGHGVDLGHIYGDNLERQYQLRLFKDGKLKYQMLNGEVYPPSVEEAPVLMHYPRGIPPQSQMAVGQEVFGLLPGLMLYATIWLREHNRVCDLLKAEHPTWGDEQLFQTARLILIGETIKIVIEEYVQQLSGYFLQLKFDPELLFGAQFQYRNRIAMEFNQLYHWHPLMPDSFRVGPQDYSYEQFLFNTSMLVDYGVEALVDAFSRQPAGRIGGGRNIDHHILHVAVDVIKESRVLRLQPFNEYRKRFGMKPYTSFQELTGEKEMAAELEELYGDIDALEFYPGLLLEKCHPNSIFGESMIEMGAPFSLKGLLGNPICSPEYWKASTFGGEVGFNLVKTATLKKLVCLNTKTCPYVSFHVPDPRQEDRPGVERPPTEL

Regarding `Cc1ccc(-c2cc(C(F)(F)F)nn2-c2ccc(S(N)(=O)=O)cc2)cc1` [Celecoxib], it took 16.7 µM to reach half-maximal inhibition against rabbit 5-LOX (IC50).

`Nc1ccc(S(=O)(=O)Nc2ncccn2)cc1` [Sulfadiazine]: the 50% inhibitory concentration (IC50) in assay [1] (Homo sapiens, THLE-2, 24 h) is 4160 ± 90.5 µM; in assay [2], 216 ± 3.8 µM; in assay [3] (Homo sapiens, HepG2, 24 h), 246 ± 4.1 µM; against rabbit 5-LOX it was 19.1 µM; on human recombinant COX-2, 5.27 µM; against ovine COX-1, 18.4 µM. Moreover, the 5-LOX level entry in the assay with LPS-inflamed THLE2 cells [4] was “significantly reduced”. Moreover, the COX-2 level entry in the assay with LPS-inflamed THLE2 cells [4], with LPS-inflamed HepG2 cells [5] (G3 vs G2) and in the assay with LPS-inflamed MCF7 cells [6] was “significantly reduced” throughout. For the same molecule, the IL1b level result in the assay on LPS-inflamed THLE2 cells [4], with LPS-inflamed HepG2 cells [5] (G3 vs G2) and with LPS-inflamed MCF7 cells [6] was “significantly reduced” in each case. Also, the TNFα level result in the assay on LPS-inflamed THLE2 cells [4], in the assay on LPS-inflamed HepG2 cells [5] (G3 vs untreated LPS-inflamed cells (G2)) and in the assay on LPS-inflamed MCF7 cells [6] was “significantly reduced” throughout. In addition, the CAT levels result in the assay with LPS-inflamed THLE2 cells [7] was “significant elevation”; in the assay with LPS-inflamed HepG2 cells [8], “increased levels”; with LPS-inflamed MCF7 cells [9], “increased levels”. The values for the GPX levels entry with LPS-inflamed THLE2 cells [7] and in the assay with LPS-inflamed HepG2 cells [8] were “significant elevation” and “increased levels”, respectively. Further, the MDA levels entry in the assay on LPS-inflamed THLE2 cells [7] is “substantial reduction”; in the assay with LPS-inflamed HepG2 cells [8] it was “significant augmentation”; in the assay on LPS-inflamed MCF7 cells [9], “significant augmentation”. Also, in the assay on LPS-inflamed THLE2 cells [7], the SOD levels result is reported as “significant elevation”. The 5-LOX gene expression result in the assay on LPS-inflamed THLE2 cells [10], in the assay on LPS-inflamed HepG2 cells [11] and in the assay on LPS-inflamed MCF7 cells [12] was “significantly blunted” throughout. Also, the COX-1 gene expression result was “not significant” in the assay with LPS-inflamed THLE2 cells [10], “significantly blunted” in the assay on LPS-inflamed HepG2 cells [11] and “significantly blunted” in the assay on LPS-inflamed MCF7 cells [12]. For the same molecule, the COX-2 gene expression result in the assay on LPS-inflamed THLE2 cells [10], in the assay with LPS-inflamed HepG2 cells [11] and in the assay with LPS-inflamed MCF7 cells [12] was “significantly blunted” in each case. Besides, the IL1b gene expression entry in the assay on LPS-inflamed THLE2 cells [10], with LPS-inflamed HepG2 cells [11] and in the assay on LPS-inflamed MCF7 cells [12] was “significantly blunted” each time. Moreover, the TNFα gene expression result with LPS-inflamed THLE2 cells [10], in the assay with LPS-inflamed HepG2 cells [11] and in the assay on LPS-inflamed MCF7 cells [12] was “significantly blunted” in each case. Further, the “experimental 5-LOX/COX-1 selectivity” value in the assay on COX-1/COX-2/5-LOX is 1. In the assay on COX-1/COX-2/5-LOX, the “experimental COX-2/COX-1 selectivity” value is 3.6.

Take `N.N.[Cl][Pt][Cl]` [Cisplatin]: the IC50 was 2140 ± 95.3 µM in assay [1] (24 h) and 66.9 ± 1.8 µM in [3] (24 h).
